Values of other authors as cited in US6392068B1, “Carborane containing cholesterol, a new type of molecule for targeted boron drug delivery” (The University of Georgia Research Foundation, Inc., priority 1999, dated 2002).

System: tumor cell
Conditions: in-vitro; background statement

Question: Which “retention in the tumor cell” value does the source give for Na2B12H11 SH [BSH] here?
Answer: does not stay in the tumor cell but is easily washed out
